From patent USRE41209E1, “Platinum complexes” (Genzyme Corporation, priority 1996, dated 2010)
pIC50: −log10 of the molar value. Where two headings read alike, the source gives them in different places.

What was measured:
CH1 = experiment: Inhibition of cell proliferation, human cancer cell lines in culture (CH1); format: cell-based
A2780R = experiment: Inhibition of cell proliferation, human cancer cell lines in culture (A2780R); format: cell-based
Description: (§1) The complexes of the invention were tested against human cancer cell lines grown in cell culture according to established testing procedures (described by Kelland et al, Cancer Research 53, 2581-2586, June 1993). […] The results are given in concentrations (μM) necessary to achieve a 50% decrease in cell proliferation, with resistance factors in brackets for the cisplatin-resistant cell lines.

HX62 = experiment: Inhibition of cell proliferation, human cancer cell lines in culture (HX62); format: cell-based
Description: as §1

CH1R = experiment: Inhibition of cell proliferation, human cancer cell lines in culture (CH1R); format: cell-based
Description: as §1

A2780 = experiment: Inhibition of cell proliferation, human cancer cell lines in culture (A2780); format: cell-based
SKOV3 = experiment: Inhibition of cell proliferation, human cancer cell lines in culture (SKOV3); format: cell-based
Description: as §1

41M = experiment: Inhibition of cell proliferation, human cancer cell lines in culture (41M); format: cell-based; settings: read-out: concentration necessary to achieve a 50% decrease in cell proliferation
41MR = experiment: Inhibition of cell proliferation, human cancer cell lines in culture (41MR); format: cell-based
Description: as §1

CH1 xenograft = CH1 xenograft antitumour activity; format: in vivo; settings: for antitumour effect and tumour regrowth in the CH1 xenograft: derived from cell line sensitive to cisplatin
From the text: It has been reported by Tobe et al (Wadley Medical Bulletin 7, 1, 114-135) that steric effects of bulky substituents close to the platinum atom have a profound effect upon the rate of substitution reactions there. At that time no systematic study of the way in which variation of the substituent on the primary amine affects the rate and extend of bonding of the Pt complex to DNA had been undertaken.

ADJ/PC6 = ADJ/PC6 tumour mass reduction in Balb C mice; format: in vivo
[1] = mouse, in vivo, po
[2] = CH1; read-out: concentration necessary to achieve a 50% decrease in cell proliferation
[3] = A2780R, bred to be resistant to cisplatin; read-out: concentration necessary to achieve a 50% decrease in cell proliferation
[4] = HX62, inherently resistant to cisplatin; read-out: concentration necessary to achieve a 50% decrease in cell proliferation
[5] = HX62 IC50 divided by the IC50 for the 41M line
[6] = CH1R, bred to be resistant to cisplatin; read-out: concentration necessary to achieve a 50% decrease in cell proliferation
[7] = A2780; read-out: concentration necessary to achieve a 50% decrease in cell proliferation
[8] = SKOV3, inherently resistant to cisplatin; read-out: concentration necessary to achieve a 50% decrease in cell proliferation
[9] = SKOV3 IC50 divided by the IC50 for the 41M line
[10] = inherently cisplatin sensitive line
[11] = 41MR, bred to be resistant to cisplatin; read-out: concentration necessary to achieve a 50% decrease in cell proliferation
[12] = Homo sapiens; read-out: concentration necessary to achieve a 50% decrease in cell proliferation
[13] = Homo sapiens, read-out: concentration necessary to achieve a 50% decrease in cell proliferation

Q: What does the source list for `N.N.O=C([O-])C1(C(=O)[O-])CCC1.[Pt+2]` [Carboplatin, reference compound]?
A: pIC50 (CH1; [2]): 5.89; resistance factor (A2780R; A2780R versus A2780): (14); pIC50 (A2780R; [3]): 4.43; pIC50 (HX62; [4]): 4.07; resistance factor (HX62; [5]): (26); resistance factor (CH1R; CH1R versus CH1): (4.6); pIC50 (CH1R; [6]): 5.22; pIC50 (A2780; [7]): 5.59; pIC50 (SKOV3; [8]): 4.42; resistance factor (SKOV3; [9]): (11); pIC50 (41M; [10]): 5.48; resistance factor (41MR; 41MR versus 41M): (2.7); pIC50 (41MR; [11]): 5.06

Q: For `N.N.[Cl][Pt][Cl]` [Cisplatin, [PtCl2 (NH3)2], reference compound], which “antitumour effect and tumour regrowth in the CH1 xenograft” value (CH1 xenograft) is on record?
A: significant activity at the maximum tolerated dose, however the tumour does grow back

Q: What about the pIC50 (CH1; [2]) of the same molecule?
A: 6.92

Q: What about the resistance factor (A2780R; A2780R versus A2780) of the same molecule?
A: (22)

Q: What about the pIC50 (A2780R; [3]) of the same molecule?
A: 5.11

Q: What about the pIC50 (HX62; [4]) of the same molecule?
A: 4.81

Q: And the resistance factor (HX62; [5])?
A: (37.8)

Q: What about the resistance factor (CH1R; CH1R versus CH1) of the same molecule?
A: (3.7)

Q: What about the pIC50 (CH1R; [6]) of the same molecule?
A: 6.36

Q: And the pIC50 (A2780; [7])?
A: 6.46

Q: What about the “ED90; dose required to reduce tumour mass by 90%” value (ADJ/PC6; ADJ/PC6, Daily × 5 (i.p.)) of the same molecule?
A: 0.2 mg/kg

Q: What about the “ED90; dose required to reduce tumour mass by 90%” value (ADJ/PC6; ADJ/PC6, Single dose (i.p.)) of the same molecule?
A: 1.6 mg/kg

Q: What about the “ED90; dose required to reduce tumour mass by 90%” value (ADJ/PC6; ADJ/PC6, Single dose (p.o.)) of the same molecule?
A: 24 mg/kg

Q: What about the pIC50 (SKOV3; [8]) of the same molecule?
A: 5.37

Q: What about the resistance factor (SKOV3; [9]) of the same molecule?
A: (10.5)

Q: What about the pIC50 (41M; [10]) of the same molecule?
A: 6.39

Q: And the resistance factor (41MR; 41MR versus 41M)?
A: (4.6)

Q: And the pIC50 (41MR; [11])?
A: 5.72

Q: What does the source list for `Cc1cccc[n+]1[Pt-2]([NH3+])([Cl])[Cl]` [Example 1, (SP-4-3)-amminedichloro(2-methylpyridine) platinum(II)]?
A: antitumour effect and tumour regrowth in the CH1 xenograft (CH1 xenograft): exhibits a curative effect, and the tumour does not grow back; potency in the CH1 xenograft compared with cisplatin (CH1 xenograft; greater dose is required than cisplatin): slightly less potency; pIC50 (CH1; [2]): 5.72; resistance factor (A2780R; A2780R versus A2780): (3.4); pIC50 (A2780R; [3]): 5.36; pIC50 (HX62; [4]): 4.40; resistance factor (HX62; [5]): (9.8); histological evidence of organ toxicity (mice receiving a LD10 dose): No significant histological evidence of liver, kidney, spleen, gastrointestinal tract, brain or skin toxicity; levels of ALP, ALT, gut disaccharides maltose, sucrose and trehalose, urea and creatinine compared to control mice (treated mice (LD50 dose)): no significant differences; resistance factor (CH1R; CH1R versus CH1): (1.9); pIC50 (CH1R; [6]): 5.43; pIC50 (A2780; [7]): 5.89; ED90; dose required to reduce tumour mass by 90% (ADJ/PC6; ADJ/PC6, Daily × 5 (i.p.)): 0.8 mg/kg; ED90; dose required to reduce tumour mass by 90% (ADJ/PC6; ADJ/PC6, Single dose (i.p.)): 3 mg/kg; ED90; dose required to reduce tumour mass by 90% (ADJ/PC6; ADJ/PC6, Single dose (p.o.)): 6.2 mg/kg; pIC50 (SKOV3; [8]): 4.76; resistance factor (SKOV3; [9]): (4.3); pIC50 (41M; [10]): 5.39; resistance factor (41MR; 41MR versus 41M): (1.2); pIC50 (41MR; [11]): 5.30; LD50; dose causing 50% lethality [1]: 560 mg/kg

Q: With `CCc1ccccn1` [Example 2, 2-ethylpyridine] as the molecule, how does the pIC50 (CH1; Homo sapiens, CH1; read-out: concentration necessary to achieve a 50% decrease in cell proliferation) read?
A: 5.85

Q: What about the resistance factor (A2780R; A2780R versus A2780) of the same molecule?
A: (2.5)

Q: What about the pIC50 (A2780R; [12]) of the same molecule?
A: 4.96

Q: What about the resistance factor (HX62; [5]) of the same molecule?
A: (10)

Q: What about the pIC50 (HX62; Homo sapiens, HX62; read-out: concentration necessary to achieve a 50% decrease in cell proliferation) of the same molecule?
A: 4.44

Q: And the resistance factor (CH1R; CH1R versus CH1)?
A: (2.6)

Q: What about the pIC50 (CH1R; [12]) of the same molecule?
A: 5.44

Q: What about the pIC50 (A2780; Homo sapiens, A2780; read-out: concentration necessary to achieve a 50% decrease in cell proliferation) of the same molecule?
A: 5.36

Q: What about the pIC50 (SKOV3; Homo sapiens, SK-OV-3; read-out: concentration necessary to achieve a 50% decrease in cell proliferation) of the same molecule?
A: 4.70

Q: And the resistance factor (SKOV3; [9])?
A: (2.9)

Q: What about the pIC50 (41M; Homo sapiens) of the same molecule?
A: 5.47

Q: What about the resistance factor (41MR; 41MR versus 41M) of the same molecule?
A: (1.7)

Q: And the pIC50 (41MR; [12])?
A: 5.24

Q: Which results are given for `Cc1ccnc(C)c1.N.[Cl][Pt][Cl]` [Example 4, (SP-4-3)-amminedichloro(2,4-dimethylpyridine)platinum(II)]?
A: pIC50 (CH1; [2]): 5.64; pIC50 (A2780R; [3]): 4.74; pIC50 (HX62; [4]): 5.31; resistance factor (HX62; [5]): (1); resistance factor (CH1R; CH1R versus CH1): (2.3); pIC50 (CH1R; [6]): 5.28; pIC50 (A2780; [7]): 5.18; pIC50 (SKOV3; [8]): 4.85; resistance factor (SKOV3; [9]): (3); pIC50 (41M; [10]): 5.37; resistance factor (41MR; 41MR versus 41M): (0.4); pIC50 (41MR; [11]): 5.72

Q: With `CC(C)c1ccccn1` [Example 5, 2-isopropylpyridine] as the molecule, how does the pIC50 (CH1; Homo sapiens, CH1, read-out: concentration necessary to achieve a 50% decrease in cell proliferation) read?
A: 5.62

Q: What about the resistance factor (A2780R; A2780R versus A2780) of the same molecule?
A: (3.6)

Q: And the pIC50 (A2780R; [13])?
A: 4.85

Q: What about the resistance factor (HX62; [5]) of the same molecule?
A: (8)

Q: And the pIC50 (HX62; Homo sapiens, HX62, read-out: concentration necessary to achieve a 50% decrease in cell proliferation)?
A: 4.31

Q: What about the resistance factor (CH1R; CH1R versus CH1) of the same molecule?
A: (1.7)

Q: And the pIC50 (CH1R; [13])?
A: 5.38

Q: And the pIC50 (A2780; Homo sapiens, A2780, read-out: concentration necessary to achieve a 50% decrease in cell proliferation)?
A: 5.41

Q: And the pIC50 (SKOV3; Homo sapiens, SK-OV-3, read-out: concentration necessary to achieve a 50% decrease in cell proliferation)?
A: 4.70

Q: What about the resistance factor (SKOV3; [9]) of the same molecule?
A: (3.3)

Q: What about the pIC50 (41M; Homo sapiens) of the same molecule?
A: 5.21

Q: And the resistance factor (41MR; 41MR versus 41M)?
A: (0.9)

Q: And the pIC50 (41MR; [13])?
A: 5.25

Q: With `Cc1cc[n+]([Pt-2]([NH3+])([OH])([OH])([Cl])[Cl])c(C)c1` [Example 7, (OC-6-43)-amminedichlorodihydroxo(2,4-dimethylpyridine)platinum(IV)] as the molecule, how does the pIC50 (CH1; [2]) read?
A: 5.51

Q: What about the resistance factor (A2780R; A2780R versus A2780) of the same molecule?
A: (2.1)

Q: And the pIC50 (A2780R; [3])?
A: 4.52

Q: What about the pIC50 (HX62; [4]) of the same molecule?
A: 4.14

Q: And the resistance factor (HX62; [5])?
A: (9)

Q: And the resistance factor (CH1R; CH1R versus CH1)?
A: (2.5)

Q: And the pIC50 (CH1R; [6])?
A: 5.05

Q: And the pIC50 (A2780; [7])?
A: 4.85

Q: And the pIC50 (SKOV3; [8])?
A: 4.33

Q: What about the resistance factor (SKOV3; [9]) of the same molecule?
A: (5.9)

Q: And the pIC50 (41M; [10])?
A: 5.10

Q: What about the resistance factor (41MR; 41MR versus 41M) of the same molecule?
A: (2.2)

Q: And the pIC50 (41MR; [11])?
A: 4.76
